Assay results as given in ChEMBL document CHEMBL1158775, “Quinones from Chirita eburnea” (J Nat Prod, 2005).

test system: Radical scavenging activity; test: Antioxidant activity assessed as DPPH radical scavenging activity; type: functional

Compound	IC50 [µM]
O=C1O[C@H]([C@@H](O)CO)C(O)=C1O [ASCORBIC ACID]	86.9
C[C@@H]1OC2=C(C(=O)c3ccc(O)c(O)c3C2=O)C1(C)C	125
COc1c(O)cc2c(c1O)C(=O)C1=C(C2=O)C(C)(C)[C@H](C)O1	45.7
